Experimental data: ChEMBL document CHEMBL1201862, “PubChem BioAssay data set” (2004)
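These data come from cells grown in 96-well plates and exposed to compound for 48 hours at five concentrations. Abbreviation: GI50, concentration required for 50% inhibition of growth.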 Active and inactive are the calls of the source. Rule as the data show it: active = GI50 up to about 1.1 µM and inactive = higher.

Tests used:
Test in all cases: inhibition of tumour cell growth, NCI panel, 48 h
[1] = test system: 786-0
[2] = test system: HT-29
[3] = test system: KM12
[4] = test system: LOX IMVI
[5] = test system: MOLT-4
[6] = test system: NCI-H226
[7] = test system: OVCAR-8
[8] = test system: RPMI-8226
[9] = test system: RXF 393
[10] = test system: SF-539
[11] = test system: SK-MEL-28
[12] = test system: SK-MEL-5
[13] = test system: SK-OV-3
[14] = test system: UACC-257
[15] = test system: UACC-62
[16] = test system: UO-31
[17] = test system: OVCAR-4
[18] = test system: SR

Measured: GI50

COc1ccc(C(=O)Nc2ccccc2)cc1[N+](=O)[O-]
inactive: [1] > 100 µM | [2] 70.3 µM | [3] 89.7 µM | [4] > 100 µM | [5] 97.5 µM | [6] > 100 µM | [7] > 100 µM | [8] > 100 µM | [9] 76.7 µM | [10] > 100 µM | [11] > 100 µM | [12] 31.5 µM | [13] > 100 µM | [14] > 100 µM | [15] > 100 µM | [16] 81.5 µM

CC(NS(=O)(=O)c1ccc([N+](=O)[O-])cc1)C(=O)O (stereo unspecified)
inactive: [1] > 100 µM | [2] > 100 µM | [3] > 100 µM | [4] > 100 µM | [5] > 100 µM | [6] > 100 µM | [17] > 100 µM | [7] > 100 µM | [8] > 100 µM | [9] > 100 µM | [10] > 100 µM | [11] > 100 µM | [12] > 100 µM | [13] > 100 µM | [14] > 100 µM | [15] > 100 µM | [16] > 100 µM

COC(=O)CC1C(=O)OCc2c1cc1n(c2=O)Cc2c-1nc1ccccc1c2OC (stereo unspecified)
inactive: [1] 37.3 µM | [2] > 100 µM | [4] 22.5 µM | [5] 3.93 µM | [17] > 100 µM | [7] > 100 µM | [8] > 100 µM | [9] 17.5 µM | [11] > 100 µM | [12] 61.1 µM | [13] 54.5 µM | [18] 6.05 µM | [14] > 100 µM | [15] 19.7 µM | [16] 16.3 µM

CN(C)C(=S)/N=c1\ss/c(=N\C(=S)N(C)C)n1Cc1ccco1
inactive: [1] > 100 µM | [3] > 100 µM | [5] > 100 µM | [6] > 100 µM | [17] > 100 µM | [7] > 100 µM | [8] > 100 µM | [9] > 100 µM | [10] > 100 µM | [11] > 100 µM | [12] > 100 µM | [13] > 100 µM | [18] > 100 µM | [14] > 100 µM | [15] > 100 µM | [16] > 100 µM

O=C1[C@@H]2C3C=CC([C@H]4C(=O)N(CO)C(=O)[C@@H]34)[C@@H]2C(=O)N1CO
inactive: [1] 41.8 µM | [2] 62.8 µM | [3] > 64.7 µM | [4] 42.1 µM | [5] 34 µM | [6] > 100 µM | [17] > 75.5 µM | [7] 35.6 µM | [8] 19.4 µM | [9] > 55.1 µM | [10] 47.3 µM | [11] > 63.5 µM | [12] 59 µM | [13] > 100 µM | [14] > 100 µM | [15] > 76.2 µM | [16] > 65.3 µM

COC(=O)CC(=O)OC
inactive: [1] > 100 µM | [2] > 100 µM | [3] > 100 µM | [4] > 100 µM | [5] > 100 µM | [17] > 100 µM | [7] > 100 µM | [8] > 100 µM | [9] > 100 µM | [10] > 100 µM | [12] > 100 µM | [13] > 100 µM | [14] > 100 µM | [15] > 100 µM | [16] > 100 µM

CCOC(=O)c1[nH]c2c(OC)n[n+]([O-])cc2c1[N+](=O)[O-]
inactive: [1] 16.4 µM | [2] 15.9 µM | [3] 15 µM | [4] 16.4 µM | [5] 31.9 µM | [6] 26.9 µM | [17] 19.8 µM | [7] 19.9 µM | [8] 18.1 µM | [9] 15.8 µM | [10] 27.9 µM | [11] 15.7 µM | [13] > 100 µM | [14] 19 µM | [15] 19.5 µM | [16] 22 µM

CN(C)CC(C)(C)/C(=N\Nc1ccccc1)c1ccccc1
inactive: [1] 45.3 µM | [2] 35.9 µM | [3] 43.3 µM | [4] 14.6 µM | [5] 46.3 µM | [17] 45.4 µM | [7] 99.8 µM | [8] 10.3 µM | [9] 37.3 µM | [10] 24.6 µM | [11] 39.9 µM | [12] 70 µM | [13] 21.8 µM | [14] 51.6 µM | [15] 14.8 µM | [16] 12.3 µM

Clc1ccc(C2=Nc3ccccc3SC(c3ccc(Cl)c(Cl)c3)C2)c(Cl)c1 (stereo unspecified)
inactive: [1] 14.5 µM | [2] 11.4 µM | [3] 7.08 µM | [4] 8.15 µM | [5] 4.9 µM | [6] 19 µM | [17] 17.1 µM | [7] 15.3 µM | [8] 2.39 µM | [9] 15.6 µM | [10] 17.7 µM | [11] 15.7 µM | [12] 18 µM | [13] 28.1 µM | [14] 19.5 µM | [15] 15.2 µM | [16] 14.4 µM

C[n+]1c2ccccc2c(NC(CS)C(=O)O)c2ccccc21 (stereo unspecified)
inactive: [1] 24 µM | [2] 28.9 µM | [3] 18.6 µM | [5] 13.8 µM | [6] 45 µM | [17] 29.8 µM | [7] 19.4 µM | [8] 18.6 µM | [9] 22.3 µM | [10] 20.7 µM | [12] 17.3 µM | [13] 23.3 µM | [18] 16.4 µM | [14] 33.7 µM | [15] 15.2 µM | [16] 16.2 µM

O=C1[C@@H]2C(c3cccc([N+](=O)[O-])c3)=NO[C@@H]2C(=O)N1c1ccc(Cc2ccc(N3C(=O)[C@H]4C(c5cccc([N+](=O)[O-])c5)=NO[C@H]4C3=O)cc2)cc1
inactive: [1] 91 µM | [2] > 100 µM | [3] > 10 µM | [4] > 10 µM | [5] > 100 µM | [17] > 100 µM | [7] > 10 µM | [8] > 100 µM | [9] > 100 µM | [10] 35.9 µM | [11] > 100 µM | [13] > 10 µM | [18] > 100 µM | [14] > 100 µM | [15] > 100 µM | [16] > 100 µM

COc1ccc(C2=NC(CO)[C@H](c3ccccc3)O2)cc1OC (stereo partly specified)
inactive: [1] > 100 µM | [2] > 100 µM | [3] > 100 µM | [4] > 100 µM | [5] > 100 µM | [6] > 100 µM | [17] > 100 µM | [7] > 100 µM | [10] > 100 µM | [12] > 100 µM | [13] 96.4 µM | [14] > 100 µM | [15] 53.6 µM | [16] > 100 µM
